This note sets out measurements from patent US9670227B2, “Thienopyrimidine derivatives, a process for their preparation and pharmaceutical compositions containing them” (LES LABORATOIRES SERVIER, priority 2013, dated 2017).

One may read the IC50 as the concentration needed to halve the response being measured.

In experiment [1] the target is Mcl-1 protein (UniProtKB primary accession number: Q07820) (Homo sapiens, UniProt Q07820). The experiment in a line: Inhibition of Mcl-1 by fluorescence polarisation, Method 1. Format: binding. The following applies: read-out: IC50 (M) Mcl-1 FP. Put shortly: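 Fluorescence polarisation competition with an 11-point compound dilution series (final DMSO 5%). Mcl-1 protein at 5 nM and fluorescein-labelled ligand at 1 nM (final) in 10 mM HEPES, 150 mM NaCl, 0.05% Tween 20, pH 7.4.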

Experiment [2] concerns H929 multiple myeloma tumour line. In words: In vitro cytotoxicity, Microculture Tetrazolium Assay. It is filed as cell-based. The following applies: Homo sapiens, NCI-H929, 48 h, H929 cells, 48 hours exposure, MTT; read-out: IC50 (μM) MTT H929. As for the experimental part:
The cytotoxicity studies were carried out on the H929 multiple myeloma tumour line.
The cells are distributed onto microplates and exposed to the test compounds for 48 hours.

Setting [3] is: fluorescence polarisation, Method 1, or Method 2.
Setting [4] is: fluorescence polarisation test, Method 2 values are underlined in the patent (underlining not visible here).

Like-named read-outs stand apart in the source and are kept apart here.

Chain of Mcl-1 protein (Q07820 whole entry): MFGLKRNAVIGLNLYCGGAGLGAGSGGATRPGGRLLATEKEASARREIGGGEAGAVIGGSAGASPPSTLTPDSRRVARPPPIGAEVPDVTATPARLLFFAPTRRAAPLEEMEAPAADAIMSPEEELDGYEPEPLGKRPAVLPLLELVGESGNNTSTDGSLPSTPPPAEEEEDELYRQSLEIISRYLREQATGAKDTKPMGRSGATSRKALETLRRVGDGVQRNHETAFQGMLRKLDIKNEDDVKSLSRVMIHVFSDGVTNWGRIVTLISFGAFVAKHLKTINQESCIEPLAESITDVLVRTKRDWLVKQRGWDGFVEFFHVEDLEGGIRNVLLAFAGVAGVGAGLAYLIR

For `CCc1sc2ncnc(OC(Cc3ccccc3)C(=O)O)c2c1-c1cc2nc(CN3CCOCC3)oc2c(Cl)c1C` [Example 446, (2R)-2-({(5Sa)-5-[7-chloro-6-methyl-2-(morpholin-4-ylmethyl)-1,3-benzoxazol-5-yl]-6-ethylthieno[2,3-d]pyrimidin-4-yl}oxy)-3-phenylpropanoic acid], the half-maximal inhibitory concentration (IC50) in experiment [1] (setting [3]) stood at 1.1e-07 M; in experiment [2] it was 25.7 µM.
With `COc1ccccc1CC(Oc1ncnc2sc(-c3ccco3)c(-c3ccc(OCC4CCCN4C)c(Cl)c3C)c12)C(=O)O` [Example 298, (2R)-2-{[(5Sa)-5-(3-chloro-2-methyl-4-{[(2S)-1-methylpyrrolidin-2-yl]methoxy}phenyl)-6-(furan-2-yl)thieno[2,3-d]pyrimidin-4-yl]oxy}-3-(2-methoxyphenyl)propanoic acid], the IC50 in experiment [1] (setting [4]) is 1.2e-08 M; in experiment [2], 1.14 µM.
The matching figures for `CCCOc1nccc(COc2ccccc2CC(Oc2ncnc3sc(-c4ccc(F)cc4)c(-c4ccc(OCCN5CCN(C)CC5)c(Cl)c4C)c23)C(=O)O)n1` [Example 61, (2R)-2-{[(5Sa)-5-{3-chloro-2-methyl-4-[2-(4-methylpiperazin-1-yl)ethoxy]phenyl}-6-(4-fluorophenyl)thieno[2,3-d]pyrimidin-4-yl]oxy}-3-{2-[(2-propoxypyrimidin-4-yl)methoxy]phenyl}propanoic acid]: 6.7e-09 M and 0.01 µM.
As for `COc1ccccc1-n1nccc1COc1ccccc1CC(Oc1ncnc2sc(-c3ccc(F)cc3)c(-c3ccc(OCCN4CCN(C)CC4)c(Cl)c3C)c12)C(=O)O` [Example 738, (2R)-2-{[(5Sa)-5-{3-chloro-2-methyl-4-[2-(4-methylpiperazin-1-yl)ethoxy]phenyl}-6-(4-fluorophenyl)thieno[2,3-d]pyrimidin-4-yl]oxy}-3-(2-{[1-(2-methoxyphenyl)-1H-pyrazol-5-yl]methoxy}phenyl)propanoic acid], the IC50 is 3.78e-09 M in experiment [1] (setting [3]) and 0.103 µM in experiment [2].
With `Cc1c(-c2c(-c3ccc(F)cc3)sc3ncnc(OC(Cc4ccccc4OCc4ccnc(OCc5cncn5C)n4)C(=O)O)c23)ccc(OCCN2CCN(C)CC2)c1Cl` [Example 60, (2R)-2-{[(5Sa)-5-{3-chloro-2-methyl-4-[2-(4-methylpiperazin-1-yl)ethoxy]phenyl}-6-(4-fluorophenyl)thieno[2,3-d]pyrimidin-4-yl]oxy}-3-[2-({2-[(1-methyl-1H-imidazol-5-yl)methoxy]pyrimidin-4-yl}methoxy)phenyl]propanoic acid], the IC50 in experiment [1] (setting [4]) is 2.4e-09 M; in experiment [2], 0.17 µM.
For `COc1ccccc1CC(Oc1ncnc2sc(-c3ccc(F)cc3)c(-c3ccc(OCCN4CCN(C)CC4)c(Cl)c3C)c12)C(=O)OCOC(=O)C(C)(C)C` [Example 643, {[(2R)-2-{[(5Sa)-5-{3-chloro-2-methyl-4-[2-(4-methylpiperazin-1-yl)ethoxy]phenyl}-6-(4-fluorophenyl)thieno[2,3-d]pyrimidin-4-yl]oxy}-3-(2-methoxyphenyl)propanoyl]oxy}methyl 2,2-dimethylpropanoate], the IC50 in experiment [1] (setting [3]) was found to be 6.6e-07 M; in experiment [2], 0.303 µM.
As to `Cc1c(-c2c(-c3ccc(Cl)o3)sc3ncnc(OC(Cc4ccccc4OCc4cnccn4)C(=O)O)c23)ccc(OCCN2CCN(C)CC2)c1Cl` [Example 374, (2R)-2-{[6-(5-chlorofuran-2-yl)-(5Sa)-5-{3-chloro-2-methyl-4-[2-(4-methylpiperazin-1-yl)ethoxy]phenyl}thieno[2,3-d]pyrimidin-4-yl]oxy}-3-[2-(pyrazin-2-ylmethoxy)phenyl]propanoic acid], the values for the IC50 in experiment [1] (setting [4]) and in experiment [2] were 9.2e-09 M and 0.038 µM, respectively.
In the same order, the values of `COc1cc(-c2sc3ncnc(OC(Cc4ccccc4OCc4ccccn4)C(=O)O)c3c2-c2ccc(OCCN3CCN(C)CC3)c(Cl)c2C)ccc1F` [Example 381, (2R)-2-{[(5Sa)-5-{3-chloro-2-methyl-4-[2-(4-methylpiperazin-1-yl)ethoxy]phenyl}-6-(4-fluoro-3-methoxyphenyl)thieno[2,3-d]pyrimidin-4-yl]oxy}-3-[2-(pyridin-2-ylmethoxy)phenyl]propanoic acid] are 1.3e-08 M and 0.119 µM.
